For 13 compounds, GI50 and TGI results are on record in PubChem BioAssay (NCI).

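Compound exposure: 48 hours, 5 concentrations, 96-well plates. GI50 is the concentration that inhibits growth by half. Definition used: TGI = concentration required for complete inhibition of growth.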

Assay in all cases: growth of human tumour cells (NCI), 48 h
In assay [1] the test system is MDA-MB-435.
Assay [2] concerns UO-31 renal.
The subject of assay [3] is T-47D breast.
The test system of assay [4] is BT-549 breast.
Assay [5] deals with TK-10 renal.
The subject of assay [6] is HS 578T breast.
Assay [7] has as its system M19-MEL melanoma.
The subject of assay [8] is DMS 114 small cell lung.
Assay [9] concerns XF 498 CNS.

For `COC(=O)c1c2c(c(C)[n+]([O-])c1C)C(=O)C=C(NCc1cccc(Cl)c1)C2=O`, the GI50 was 0.116 µM in [1]; 1.09 µM in [2]; 0.187 µM in [3]; 1.26 µM in [4]; 2.43 µM in assay [5]; 1.77 µM in [6]. The TGI was found to be 0.251 µM in [1]; 2.35 µM in assay [2]; 1.71 µM in assay [3]; 2.63 µM in assay [4]; 6.52 µM in assay [5]; 6.79 µM in [6].

For `CCOC(=O)C(Cc1ccccc1)NC(=O)c1[nH]cnc1/N=N/N(C)C` (stereo not given), the TGI in assay [2], in assay [7] and in assay [8] was more than 100 µM throughout.

`COc1cc(C(=O)O[C@H](C(=O)NCCN(C)CCNC(=O)[C@@H](OC(=O)c2cc(OC)cc3c(C)cccc23)[C@]2(C)CO2)[C@]2(C)CO2)c2cccc(C)c2c1`: the GI50 was less than 0.01 µM in [1]; 0.417 µM in assay [2]; 0.0924 µM in [3]; 0.342 µM in assay [4]; 0.348 µM in [5]; 0.304 µM in [6]. Besides, the TGI in assay [1] is 0.0398 µM; in assay [2] it was more than 100 µM; in assay [3], 1.7 µM; in assay [4] it was 4.85 µM; in assay [5], 1.57 µM; in assay [6], more than 100 µM.

Consider `O=c1oc2cc(OC/C(=N/O)c3ccc(F)cc3)ccc2c2ccccc12`, for which the GI50 in assay [1] was 17.3 µM; in [2], 18.7 µM; in assay [3], 35.4 µM; in [4], 21.7 µM; in assay [5], 27 µM; in [6] it was 28.8 µM. Also, the TGI is 38.7 µM in [1]; 35.2 µM in assay [2]; more than 100 µM in [3]; 42.3 µM in assay [4]; 81.2 µM in assay [5]; 63.1 µM in [6].

For the compound `C[C@]12CC[C@H]3[C@@H](CC4SC(N)=NC45C/C(=N/NC(N)=O)CC[C@]35C)[C@@H]1CCC2=O` (stereo not given in full), the GI50 in [1] is 1.33 µM; in assay [2] it was 1.52 µM; in assay [3] it was 1.86 µM; in [4], 2.84 µM; in [5] it was 2.29 µM; in assay [6], 2.08 µM. The TGI was determined as 2.7 µM in [1]; 2.88 µM in assay [2]; 3.8 µM in assay [3]; 8.91 µM in assay [4]; 5.45 µM in assay [5]; 5.15 µM in assay [6].

For the compound `COc1ccc2oc(-c3ccc(OC)c(OC)c3OC)cc(=O)c2c1`, the TGI in [7], in assay [9], in assay [8] and in [5] was more than 100 µM throughout.

Turning to `O=CN1N=C(c2cccc(Nc3ccnc4cc(Cl)ccc34)c2)CC1c1ccccc1` (stereo not given), the GI50 in [1] was 0.0889 µM; in assay [2] it was 0.408 µM; in assay [3] it was 0.381 µM; in assay [4] it was 0.207 µM; in assay [5] it was 0.345 µM; in [6], 0.248 µM. The TGI in assay [1] is 0.432 µM; in assay [2], more than 100 µM; in assay [3] it was 9.59 µM; in assay [4] it was 1.51 µM; in [5], 16.4 µM; in [6], 3.4 µM.

With `Clc1ccc2nc(CI)c(CI)nc2c1`, the GI50 in [1] was 3.16 µM; in assay [2], 1.72 µM; in assay [3], 2.6 µM; in assay [4], 2.11 µM; in assay [5], 3 µM; in [6], 20.6 µM. For the same compound, the TGI in assay [1] was 14.4 µM; in [2] it was 3.5 µM; in assay [3], 8.28 µM; in assay [4], 5.58 µM; in assay [5] it was 10.2 µM; in assay [6], more than 65.5 µM.

For `Cn1nc(C(F)(F)F)c(-c2cc(C(F)(F)F)cc(C(F)(F)F)c2)c1-c1ccc(OCc2ccc(Cl)cc2)cc1O`, the GI50 in [1] is 2.54 µM; in assay [2], 1.89 µM; in assay [3], 1.54 µM; in [4] it was 1.67 µM; in assay [5], 3.11 µM; in assay [6], 2.19 µM. In addition, the TGI in assay [1] stood at 8.03 µM; in assay [2], 4.28 µM; in [3], 8.4 µM; in [4], 3.33 µM; in assay [5] it was 11.1 µM; in [6] it was 6.78 µM.

As for `COc1cc(OC)c(OC)cc1/C=C/c1cnnc2ccccc12`, the TGI in [1] was 6.52 µM; in assay [2], more than 10 µM; in [3], more than 10 µM; in [4], more than 10 µM; in assay [5] it was more than 10 µM; in [6], more than 10 µM.

In the case of `N#C/C(=N\Nc1ccccc1)C(=O)Nc1cc(-c2ccccc2)nn1-c1ccccc1`, the GI50 in assay [1] is 3.05 µM; in [2], 2.58 µM; in assay [3] it was 2.03 µM; in [4], 2.2 µM; in assay [5], 4.27 µM; in [6] it was 3.5 µM. Besides, the TGI in assay [1] is more than 100 µM; in assay [2] it was more than 100 µM; in assay [3], 8.11 µM; in assay [4] it was 6.47 µM; in [5], more than 100 µM; in assay [6] it was more than 100 µM.

As for `COc1cc(NS(C)(=O)=O)ccc1NCc1c2ccccc2nc2ccccc12`, the TGI in assay [2] was more than 100 µM; in [9], 65.9 µM; in assay [8], 58.2 µM; in [5] it was more than 100 µM.

As for `CC(C)=CC(=O)N[C@H]1CC[C@]2(C)C3CC[C@]4(C)C(C(C)N(C)C)=CCC4C3CCC2[C@H]1O` (stereo not given in full), the GI50 was 2 µM in [1]; 1.88 µM in assay [2]; 2.58 µM in assay [3]; 5.99 µM in assay [4]; 11 µM in assay [5]; 4.25 µM in assay [6]. The TGI in assay [1] is 4.53 µM; in [2] it was 4.51 µM; in assay [3], 9.59 µM; in assay [4] it was 20.8 µM; in assay [5], 26.3 µM; in assay [6], 18.8 µM.
